Converted amounts (≈) assume the structure as drawn. “Also recorded” adds a separate entry of the source.

Holding throughout (format): physicochemical
Data set [1] in a line: Solubility study: saturated solutions in SGF and FeSSIF, concentration by HPLC. The settings on record: for Solubility FeSSIF: FeSSIF (fed state simulated intestinal fluids, pH=5.0). From the text: High Performance Liquid Chromatography (HPLC) data in the present disclosure were collected from an Agilent 1260 with Diode Array Detector (DAD). The HPLC method parameters for purity test in the present disclosure are as follows: • 1. Column: Waters XBridge C18 150×4.6 mm, 5 μm • 2. Mobile Phase: A: 0.1% TFA in H2O • B: 0.1% TFA in Acetonitrile
The prepared apabetalone Form CS2 was suspended into SGF (simulated gastric fluids) and FeSSIF (fed state simulated intestinal fluids, pH=5.0) to obtain saturated solutions. After being equilibrated for 1 h and 24 h, concentrations of the saturated solutions were measured by HPLC.
The prepared Form CS8 was suspended into SGF (simulated gastric fluids) and FeSSIF (fed state simulated intestinal fluids, pH=5.0) to obtain saturated solutions. After being equilibrated for 1 h, concentrations of the saturated solutions were measured by HPLC.
The prepared Form CS13 was suspended into SGF (simulated gastric fluids) and FeSSIF (fed state simulated intestinal fluids, pH=5.0) to obtain saturated solutions. After being equilibrated for 1 h, 4 h and 24 h, concentrations of the saturated solutions were measured by HPLC.
The prepared apabetalone Form CS20 was suspended into SGF (simulated gastric fluids) and FeSSIF (fed state simulated intestinal fluids, pH=5.0) to obtain saturated solutions. After being equilibrated for 1 h, 4 h and 24 h, concentrations of the saturated solutions were measured by HPLC.
The prepared solid of apabetalone Form CS1 was suspended into SGF (simulated gastric fluids) and FeSSIF (fed state simulated intestinal fluids, pH=5.0) to obtain saturated solutions. After being equilibrated for 1 h, 4 h and 24 h, concentrations of the saturated solutions were measured by HPLC.
The prepared solid of apabetalone Form CS7 was suspended into SGF (simulated gastric fluids) and FeSSIF (fed state simulated intestinal fluids, pH=5.0) to obtain saturated solutions. After being equilibrated for 1 h, 4 h and 24 h, concentrations of the saturated solutions were measured by HPLC.
The prepared solid of apabetalone Form CS9 was suspended into SGF (simulated gastric fluids) and FeSSIF (fed state simulated intestinal fluids, pH=5.0) to obtain saturated solutions. After being equilibrated for 1 h, 4 h and 24 h, concentrations of the saturated solutions were measured by HPLC.
The prepared solid of apabetalone Form CS11 was suspended into SGF (simulated gastric fluids) and FeSSIF (fed state simulated intestinal fluids, pH=5.0) to obtain saturated solutions. After being equilibrated for 1 h, 4 h and 24 h, concentrations of the saturated solutions were measured by HPLC.
The prepared solid of apabetalone Form CS4 was suspended into SGF (simulated gastric fluids) and FeSSIF (fed state simulated intestinal fluids, pH=5.0) to obtain saturated solutions. After being equilibrated for 1 h, 4 h and 24 h, concentrations of the saturated solutions were measured by HPLC.

Data set [2] can be described thus: Stability study: open-dish storage in constant temperature and humidity chambers, XRPD and purity check. The conditions noted are these: for Form change and purity decrease after storage: open dish. The protocol:
Form CS8 was placed in a constant temperature and humidity chamber at 25° C./60% RH for 2 weeks in open dish. Crystalline form of the sample were tested by XRPD and impurity of the sample were checked. […] Crystalline form of the sample were tested by XRPD and impurity of the sample were checked. […] Two samples of apabetalone Form CS1 were placed in constant temperature and humidity chambers at 25° C./60% RH and 40° C./75% RH for 10 months in open dishes. The samples were characterized by XRPD and chemical impurity. […] Three samples of apabetalone Form CS7 were placed in constant temperature and humidity chambers at 25° C./60% RH and 40° C./75% RH for 4 weeks and 80° C. for 1 day in open dishes. Crystalline form of the sample were tested by XRPD and impurity of the sample were checked. […] Two samples of apabetalone Form CS9 were placed in constant temperature and humidity chambers at 25° C./60% RH and 40° C./75% RH for 10 months in open dishes. Crystalline form of the sample were tested by XRPD and impurity of the sample were tested to check the stability of Form CS9. […] Two samples of apabetalone Form CS11 were placed in constant temperature and humidity chambers at 25° C./60% RH and 40° C./75% RH for 6 weeks in open dishes. Crystalline form of the sample were tested by XRPD and impurity of the sample were tested to check the stability of Form CS11. […] Two samples of apabetalone Form CS4 were placed in open dishes in constant temperature and humidity chambers at 25° C./60% RH and 40° C./75% RH for 10 months. Crystalline form of the sample were tested by XRPD and impurity of the sample were tested to check the stability of Form CS4.

Data set [3] in a line: Hygroscopicity by dynamic vapor sorption (DVS). The conditions noted are these: for Hygroscopicity class: Chinese Pharmacopoeia 2015 criteria, 80% RH; for Hygroscopicity class / Weight Gain under 80% Relative Humidity: 25° C.; for Weight Gain under 80% Relative Humidity: DVS, about 10 mg of sample; for Form change after DVS test (XRPD): XRPD before and after DVS test. The protocol: Dynamic Vapor Sorption (DVS) was measured via a SMS (Surface Measurement Systems Ltd.) intrinsic DVS instrument. Its control software is DVS—Intrinsic control software, and its analysis software is DVS—Intrinsic Analysis software. Typical Parameters for DVS test are as follows: • Temperature: 25° C. • Gas and flow rate: N2, 200 mL/min • dm/dt: 0.002%/min • RH range: 0% RH to 95% RH Dynamic vapor sorption (DVS) was applied to test hygroscopicity of Form CS8 in the present disclosure with about 10 mg of sample. […] Dynamic vapor sorption (DVS) was applied to test hygroscopicity of Form CS1 of the present disclosure with about 10 mg of sample. […] Dynamic vapor sorption (DVS) was applied to test hygroscopicity of Form CS7 of the present disclosure with about 10 mg of samples. Dynamic vapor sorption (DVS) was applied to test hygroscopicity of Form CS9 of the present disclosure with about 10 mg of sample. […] Dynamic vapor sorption (DVS) was applied to test hygroscopicity of Form CS4 of the present disclosure with about 10 mg of sample.

The mark [4] stands for this setting: SGF (simulated gastric fluids), equilibrated 1 h.
The mark [5] stands for this setting: SGF (simulated gastric fluids), equilibrated 4 h.
Setting [6] is: SGF (simulated gastric fluids), equilibrated 24 h.

For the compound `COc1cc(OC)c2c(=O)[nH]c(-c3cc(C)c(OCCO)c(C)c3)nc2c1` [Form CS8, 2-[4-(2-hydroxyethoxy)-3,5-dimethylphenyl]-5,7-dimethoxyquinazolin-4(3H)-one], the “Solubility FeSSIF” value in data set [1] (equilibrated 1 h) was 280 µg/mL (≈ 756 µM). For the same compound, in data set [1] (setting [4]), the “Solubility SGF” value was 430 µg/mL (≈ 1160 µM). The “Time the form is stable when stored” value in data set [2] (25° C./60% RH) is “at least 2 weeks”. Moreover, the “Form change and purity decrease after storage” value (from here on “Form change and purity decrease”) in data set [2] (25° C./60% RH, 2 weeks) was “No obvious form change and purity decrease”. Moreover, in data set [3], the Hygroscopicity class result was “slightly hygroscopic (Increase in mass is less than 2 percent and equal to or greater than 0.2 percent)”; the “Weight Gain under 80% Relative Humidity” value is recorded as 0.34%; the “Form change after DVS test (XRPD)” value was “No form change”.

For the compound `COc1cc(OC)c2c(=O)[nH]c(-c3cc(C)c(OCCO)c(C)c3)nc2c1` [Form CS20, 2-[4-(2-hydroxyethoxy)-3,5-dimethylphenyl]-5,7-dimethoxyquinazolin-4(3H)-one], the “Solubility FeSSIF” value in data set [1] (equilibrated 1 h) is 190 µg/mL (≈ 513 µM); in data set [1] (equilibrated 4 h) it was 160 µg/mL (≈ 432 µM); in data set [1] (equilibrated 24 h), 220 µg/mL (≈ 594 µM). For the same compound, the results for the “Solubility SGF” value in data set [1] (setting [4]), in data set [1] (setting [5]) and in data set [1] (setting [6]) were 440 µg/mL (≈ 1190 µM), 410 µg/mL (≈ 1110 µM) and 510 µg/mL (≈ 1380 µM), respectively. In addition, the “Time the form is stable when stored” value in data set [2] (25° C./60% RH) and in data set [2] (40° C./75% RH) was “at least 2 weeks” each time. The “Form change and purity decrease” value is “No form change and obvious purity decrease” in data set [2] (25° C./60% RH, 2 weeks); “No form change and obvious purity decrease” in data set [2] (40° C./75% RH, 2 weeks).

Consider `COc1cc(OC)c2c(=O)[nH]c(-c3cc(C)c(OCCO)c(C)c3)nc2c1` [Form CS9, 2-[4-(2-hydroxyethoxy)-3,5-dimethylphenyl]-5,7-dimethoxyquinazolin-4(3H)-one], for which the entries for the “Solubility FeSSIF” value in data set [1] (equilibrated 1 h), in data set [1] (equilibrated 4 h) and in data set [1] (equilibrated 24 h) were 170 µg/mL (≈ 459 µM), 130 µg/mL (≈ 351 µM) and 200 µg/mL (≈ 540 µM), respectively. Besides, the figures for the “Solubility SGF” value in data set [1] (setting [4]), in data set [1] (setting [5]) and in data set [1] (setting [6]) were 300 µg/mL (≈ 810 µM), 310 µg/mL (≈ 837 µM) and 370 µg/mL (≈ 999 µM), respectively. The “Time the form is stable when stored” value in data set [2] (25° C./60% RH) and in data set [2] (40° C./75% RH) was “at least 10 months” in each case. For the same compound, the “Form change and purity decrease” value is “No form change and obvious purity decrease” in data set [2] (25° C./60% RH, 10 months); “No form change and obvious purity decrease” in data set [2] (40° C./75% RH, 10 months). For the same compound, the Hygroscopicity class result in data set [3] is recorded as “almost non hygroscopic”. The “Weight Gain under 80% Relative Humidity” value in data set [3] is recorded as 0.18%. Further, the “Form change after DVS test (XRPD)” value in data set [3] is on record as “doesn't change; also recorded: No form change”.

Turning to `COc1cc(OC)c2c(=O)[nH]c(-c3cc(C)c(OCCO)c(C)c3)nc2c1` [Form CS11, 2-[4-(2-hydroxyethoxy)-3,5-dimethylphenyl]-5,7-dimethoxyquinazolin-4(3H)-one], the entries for the “Solubility SGF” value in data set [1] (setting [4]), in data set [1] (setting [5]) and in data set [1] (setting [6]) were 710 µg/mL (≈ 1920 µM), 650 µg/mL (≈ 1750 µM) and 650 µg/mL (≈ 1750 µM), respectively. The “Time the form is stable when stored” value in data set [2] (25° C./60% RH) and in data set [2] (40° C./75% RH) was “at least 6 weeks” throughout. Also, the “Form change and purity decrease” value was “No form change and obvious purity decrease” in data set [2] (25° C./60% RH, 6 weeks); “No form change and obvious purity decrease” in data set [2] (40° C./75% RH, 6 weeks).

With `COc1cc(OC)c2c(=O)[nH]c(-c3cc(C)c(OCCO)c(C)c3)nc2c1` [Form CS13, 2-[4-(2-hydroxyethoxy)-3,5-dimethylphenyl]-5,7-dimethoxyquinazolin-4(3H)-one], the results for the “Solubility FeSSIF” value in data set [1] (equilibrated 1 h), in data set [1] (equilibrated 4 h) and in data set [1] (equilibrated 24 h) were 130 µg/mL (≈ 351 µM), 140 µg/mL (≈ 378 µM) and 140 µg/mL (≈ 378 µM), respectively. In addition, the “Solubility SGF” value in data set [1] (setting [4]) is 350 µg/mL (≈ 945 µM); in data set [1] (setting [5]), 310 µg/mL (≈ 837 µM); in data set [1] (setting [6]), 330 µg/mL (≈ 891 µM).

Regarding `COc1cc(OC)c2c(=O)[nH]c(-c3cc(C)c(OCCO)c(C)c3)nc2c1` [Form CS7, 2-[4-(2-hydroxyethoxy)-3,5-dimethylphenyl]-5,7-dimethoxyquinazolin-4(3H)-one], the “Solubility FeSSIF” value is 190 µg/mL (≈ 513 µM) in data set [1] (equilibrated 1 h), 170 µg/mL (≈ 459 µM) in data set [1] (equilibrated 4 h) and 290 µg/mL (≈ 783 µM) in data set [1] (equilibrated 24 h). Further, the “Solubility SGF” value in data set [1] (setting [4]) is 380 µg/mL (≈ 1030 µM); in data set [1] (setting [5]), 420 µg/mL (≈ 1130 µM); in data set [1] (setting [6]), 580 µg/mL (≈ 1570 µM). Also, the “Time the form is stable when stored” value in data set [2] (25° C./60% RH) and in data set [2] (40° C./75% RH) was “at least 4 weeks” throughout. Also, the “Form change and purity decrease” value is “No form change and obvious purity decrease” in data set [2] (25° C./60% RH, 4 weeks); “No form change and obvious purity decrease” in data set [2] (40° C./75% RH, 4 weeks); “No form change and obvious purity decrease” in data set [2] (80° C., 1 day). Besides, the Hygroscopicity class result in data set [3] was “slightly hygroscopic (Increase in mass is less than 2 percent and equal to or greater than 0.2 percent)”. In addition, the “Weight Gain under 80% Relative Humidity” value in data set [3] is recorded as 0.79%. The “Form change after DVS test (XRPD)” value in data set [3] was “No form change”.

In general, solubility refers to the concentration that dissolves in the medium under given conditions. Low readings indicate a poorly soluble substance, high ones a readily soluble substance. Turning to `COc1cc(OC)c2c(=O)[nH]c(-c3cc(C)c(OCCO)c(C)c3)nc2c1` [Form CS2, 2-[4-(2-hydroxyethoxy)-3,5-dimethylphenyl]-5,7-dimethoxyquinazolin-4(3H)-one], the “Solubility FeSSIF” value in data set [1] (equilibrated 1 h) was 150 µg/mL (≈ 405 µM); in data set [1] (equilibrated 24 h), 240 µg/mL (≈ 648 µM). In data set [1] (setting [4]), the “Solubility SGF” value is 490 µg/mL (≈ 1320 µM). In data set [1] (SGF (simulated gastric fluids), simulated gastric fluid, thermodynamic from solid, equilibrated 24 h), this compound showed a solubility at 24 h of 610 µg/mL (≈ 1650 µM).

(Values after patent US10752595B2, “Crystalline forms of a bromodomain and extraterminal protein inhibitor drug, processes for preparation thereof, and use thereof” (Crystal Pharmaceutical (Suzhou) Co., Ltd., priority 2016, dated 2020).)
